Results reported in article PMC7321103, “In Vitro Metabolic Transformation of Pharmaceuticals by Hepatic S9 Fractions from Common Carp (Cyprinus carpio)” (Molecules, 2020).
Read-outs that look alike come from different tables or passages of the source.

Tests used:
[1] = test system: common carp hepatic S9 fraction; test: Metabolite formation in common carp hepatic S9 fraction (not induced and BNF induced); assay type: in vitro ADME, common carp (Cyprinus carpio); conditions: for Metabolites Concentration, BNF Fish S9: carp induced with 50 mg/kg BNF; for Metabolites Concentration, BNF Fish S9 / Metabolites Concentration, Fish S9: 2 µM parent pharmaceutical, 1 h, 21 °C; for Metabolites Concentration, Fish S9: not induced carp, 1 mg protein
Experimental: Fish. Fish were collected from a fishpond with a low concentration level of pharmaceuticals (305-880 ng/POCIS). Thus, fish were stocked in the pond for 1 year with a natural photoperiod. The fish were allowed to eat and swim freely in the pond without interaction with humans and avoiding stress conditions. In total, 1-year-old common […] = 12) weighing 695 ± 116 g (mean ± standard deviation) and length 330 ± 19 mm were collected during spring 2018. Additionally, β-naphtaflavone (BNF) was administrated into four fish at levels of 50 mg/kg of BNF in corn oil. Following administration, individuals were kept in a separate aquaria for 48 h, in order to achieve CYP1A1 induction. The fish were then sacrificed according to the ethical rules of the EU harmonized Animal Welfare Act of the Czech Republic. The unit is licensed (No. 53100/2013-MZE-17214), according to the Czech National Directive (the Law against Animal Cruelty, No. 246/1992). Before sampling, fish were anesthetized in an ice bath, and their spinal cords were immediately cut. Fish was bloodless and hepatic tissues were collected and stored at -80 °C before use for the preparation of S9 fraction. Hepatic tissue (approx. 1.2 g) of twelve individual common […] two individual sheep were homogenized in 10 mM Tris-HCl buffer, pH 7.4, containing 250 mM sucrose separately using an T-25 Ultra Turrax homogenizer Ika (Staufen, Germany) followed by centrifugation at 10,000× g for 15 min at 4 °C to obtain S9 fractions. The protein concentration in S9 fractions was determined by the colorimetric method according to Smith et al. at 595 nm. The S9 fractions were diluted to 10 mg/mL protein content. To account for the gender effect, four piscine S9 fractions were combined in one pool with the same ratio of males/females (1:1). The incubations were performed using three S9 pools from common carp. One pool was prepared from ovine S9 fractions. […] According to Hou et al. […] The concentrations of the parent compound and its main metabolites (metoprolol acid, N-desmethylcitalopram, norsertraline, and O-desmethylvenlafaxine) were determined by LC HRMS (Thermo Fisher Scientific, San Jose, CA, USA). The chromatographic separation was performed on a Hypersil Gold aQ analytical column (50 × 2.1 mm; 5 μm particles, Thermo Fisher Scientific). […] A heated electrospray ionization (HESI) source was used for the ionization of the target compounds with a spray voltage of 3.5 kV and nitrogen as the sheath gas (40 arbitrary units), auxiliary gas (10 arbitrary units), and collision gas. The full scan mode with high resolution (70000 FWHM) in range 100-750 m/z was used with the AGC target 3e6, and the maximum filling time 50 ms. Data acquisition was performed with Xcalibur 4.3 Software, and data processing was performed using TraceFinder 3.3 Software (both Thermo Fisher Scientific, San Jose, CA, USA). Internal standard and matrix matching standard methods were used for the quantification of target analytes.

CYP1A = test system: CYP1A; parameters: method as in PMID 29704845; conditions: rainbow trout microsomal fraction; cited from earlier work
CYP3A-like = test system: CYP3A-like; parameters: method as in PMID 29704845; conditions: rainbow trout microsomal fraction; cited from earlier work
CYP1A1 = test: Inhibition of N-desmethylcitalopram formation by ellipticine in common carp S9; assay type: biochemical, common carp (Cyprinus carpio); conditions: citalopram 5 μM
Experimental: Ellipticine (a specific inhibitor of mammalian and piscine CYP1A1) was used to investigate if CYP1A1 was responsible for metabolite formation. Incubations were performed only with citalopram. Three concentrations of ellipticine were used in the final incubations: 0.125, 1.25, and 12.5 μM. The choice of these concentrations was based on the previous results. The degree of inhibition was assessed by comparison of metabolite formation in the presence and absence of inhibitor. The incubation without inhibitor contained the same amount of methanol as in the incubations with inhibitor (0.5% from total incubation volume).

[2] = parameters: method as in PMID 29729738; conditions: fish from pond receiving WWTP water; cited from earlier work
[3] = Control incubation of pharmaceutical without S9 fraction; conditions: 2 µM parent pharmaceutical, no S9, 1 h
[4] = test system: common carp hepatic S9 fraction; test: Kinetics of N-desmethylcitalopram formation from citalopram in common carp S9; assay type: in vitro ADME, common carp (Cyprinus carpio); conditions: Michaelis-Menten fit, citalopram 0.01-100 μM
Experimental: (§1) Kinetic analysis using multiple substrate concentrations was conducted only with citalopram using the same procedure as above-described. The substrate concentrations were 0.01, 0.03, 0.1, 1, 10, 50, 75, and 100 μM of citalopram.
(§2) The data were analyzed using non-linear regression analysis (GraphPad Prism version 4.0 for Windows, GraphPad Software, San Diego, CA, USA). The data were fitted to the Michaelis-Menten equation and two enzyme models. The goodness of fit was assessed by comparison of the coefficient of determination (r^2). Visual analysis of Eadie-Hofstee plots was used to estimate whether one or more enzymes participate in the reaction.

[5] = as above; assay type: in vitro ADME, common carp (Cyprinus carpio); conditions: common carp (Cyprinus carpio), hepatic S9 fraction, Michaelis-Menten fit, citalopram 0.01-100 μM
Experimental: as §1, §2

human hepatic microsomes = test system: human hepatic microsomes; parameters: method as in PMID 10494454; conditions: cited from earlier work
[6] = test system: sheep hepatic S9 fraction; test: Metabolite formation in sheep hepatic S9 fraction; assay type: in vitro ADME; conditions: 2 µM parent pharmaceutical, 1 mg protein, 1 h, 37 °C
Experimental: Sheep. Hepatic tissue from one male and one female Suffolk sheep (age, 2 years; weight 70-80 kg) were collected at a slaughterhouse in Vodňany town, Czech Republic, and stored at -80 °C. Sheep is a relatively new animal model, which has started to be used in veterinarian investigations related to drug-drug interactions, as well as for effective therapy and the limitation of drug-resistance development. Sheep phase I biotransformation enzymes, including CYPs-dependent metabolic activities in sheep liver, were already characterized by Szotakova et al., Maté et al. and Stuchlíková et al.. The use of the S9 fraction from sheep hepatic tissue could represent the mammalian metabolic system in relation to selected pharmaceuticals. […] The protein concentration in S9 fractions was determined by the colorimetric method according to Smith et al. at 595 nm. […] The concentrations of the parent compound and its main metabolites (metoprolol acid, N-desmethylcitalopram, norsertraline, and O-desmethylvenlafaxine) were determined by LC HRMS (Thermo Fisher Scientific, San Jose, CA, USA). […] Internal standard and matrix matching standard methods were used for the quantification of target analytes.

With N[C@H]1CC[C@@H](c2ccc(Cl)c(Cl)c2)c2ccccc21 [Norsertraline, norsertraline] the “Metabolite formation, fold higher in induced fish than in not induced S9 fraction” value [1] was 1.7 fold.

For COc1ccc(C(CN(C)C)C2(O)CCCCC2)cc1 (stereo not shown) [venlafaxine], the “Effect on EROD activity” value (CYP1A) is listed as “did not alter” and the “Effect on BFCOD activity” value (CYP3A-like) is listed as “did not alter”.

In the case of Cc1c2ccncc2c(C)c2c1[nH]c1ccccc12 [ellipticine], the “Reduction of N-desmethylcitalopram formation” value (CYP1A1; 0.125 μM ellipticine) is reported as 30 ± 10%, the “Inhibition of N-desmethylcitalopram formation” value (CYP1A1; 1.25 μM ellipticine) is reported as “completely inhibited” and the “Inhibition of N-desmethylcitalopram formation” value (CYP1A1; 12.5 μM ellipticine) is reported as “completely inhibited”.

With CNCCCC1(c2ccc(F)cc2)OCc2cc(C#N)ccc21 (stereo not shown) [N-desmethylcitalopram] the “Metabolite formation, fold higher in induced fish than in not induced S9 fraction” value ([1]; BNF induced vs not induced carp S9) was 5.3 fold, the “Metabolites Concentration, BNF Fish S9” value [1] was 1557 pmol/min/mg and the “Metabolites Concentration, Fish S9” value [1] was 295 pmol/min/mg. For the same compound, the “Average concentration in hepatic tissue of common carp” value [2] was 2.6 ± 1.4 ng/g wet weight, the “Metabolites Concentration, Control (without S9)” value [3] was “<LOQ” and the “Vmax of N-desmethylcitalopram formation” value [4] was 1781 ± 90 pmol/min/mg. The Km [5] was 29.7 ± 4.6 µM, the “Vmax for N-desmethylcitalopram, monophasic model” value (human hepatic microsomes; monophasic model) was 183 to 281 pmol/min/mg and the “Metabolites Concentration, Sheep S9” value [6] was 2309 pmol/min/mg.

With CN(C)CC(c1ccc(O)cc1)C1(O)CCCCC1 (stereo not shown) [O-desmethylvenlafaxine] the “Metabolites Concentration, BNF Fish S9” value [1] was “<LOQ”, the “Metabolites Concentration, Fish S9” value [1] was “<LOQ” and the “Metabolites Concentration, Control (without S9)” value [3] was “<LOQ”. The “Metabolites Concentration, Sheep S9” value [6] was 823 pmol/min/mg.

In the case of CN(C)CCCC1(c2ccc(F)cc2)OCc2cc(C#N)ccc21 (stereo not shown) [citalopram, Citalopram], the “Average concentration in hepatic tissue of common carp” value [2] is listed as 3.1 ± 2.9 ng/g wet weight, the “Vmax of citalopram N-demethylation, first enzyme” value (human hepatic microsomes; biphasic model) is listed as 25 pmol/min/mg and the “Vmax of citalopram N-demethylation, second enzyme” value (human hepatic microsomes; biphasic model) is listed as 158 pmol/min/mg. The Km (human hepatic microsomes; biphasic model, read-out: Km of citalopram N-demethylation, first enzyme) was 17.3 µM and the Km (human hepatic microsomes; biphasic model, read-out: Km of citalopram N-demethylation, second enzyme) was 185 µM.

For CC(C)NCC(O)COc1ccc(CC(=O)O)cc1 (stereo not shown) [Metoprolol acid, metoprolol acid], the “Metabolite formation, fold reduction in induced fish vs not induced S9 fraction” value [1] was 3.4 fold.
